Results reported in patent US20040002425A1, “Triketone derivatives and herbicides” (Idemitsu Kosan Co., Ltd., priority 1998, published 2004).

Test system: Transplanted paddy rice plant
Assay: Biological Test 1 (treatment on the 3rd day after transplantation): chemical injury to paddy rice
Format: in vivo
Parameters: scale not given here
Details: Treatment performed 3 days after transplantation
Experimental: (1) Preparation of Herbicide
Talc (57 parts by weight) and bentonite (40 parts by weight), both serving as carriers, and sodium alkylbenzenesulfate (3 parts by weight) serving as a surfactant were homogeneously ground and mixed to thereby obtain a carrier for water-dispersible powder.
Subsequently, to the water-dispersible powder (90 parts by weight), the triketone derivative (compound No. A-1) produced in Example I-1 (10 parts by weight) was added, and the resultant mixture was homogeneously ground and mixed to thereby obtain a herbicide.
(i) Biological Test 1 (Soaking in Water/Treatment on the 3rd Day After Transplantation)
A Wagner pot (1/2000 are) was filled with paddy soil, and seeds of barnyard grass were planted on the surface layer of the soil, and further, rice seedlings grown to the 2.5-leaf stage were transplanted.
Subsequently, water was poured in the pot to a height of 3 cm above the soil surface, and placed in a greenhouse where the temperature was maintained at 20-25° C., to thereby grow the plant under suitable conditions.
On the 3rd day after transplantation, the herbicide prepared in (1) above was applied to the plant in a predetermined amount. On the 30th day after treatment with the herbicide, weed-killing ratio, herbicidal effect, and extent of chemical injury to paddy rice were examined.
In Biological tests 1 and 2, herbicidal effect and extent of chemical injury were evaluated according to the below-described standards.
3) Chemical Injury to Paddy Rice
Chemical injury to paddy rice was evaluated according to the following criteria.

[1] = dose 100 g/ha, examined on the 30th day after treatment
[2] = dose 200 g/ha, examined on the 30th day after treatment

SMILES	Chemical injury, Transplanted paddy rice plant [1]	Chemical injury, Transplanted paddy rice plant [2]	Chemical injury, Transplanted paddy rice plant (dose 100 g/ha)	Chemical injury, Transplanted paddy rice plant (dose 200 g/ha)
O=C1CCCC(O)=C1C(=O)c1ccc2c(c1Cl)CCS2(=O)=O [A-1, 4-chloro-5-(1,3-dioxocyclohexan-2-yl)carbonyl-2,3-dihydrobenzothiophene-1,1-dioxide]	0	0	–	–
Cc1c(C(=O)C2=C(O)CCCC2=O)ccc2c1CCS2(=O)=O [A-2, 4-methyl-5-(1,3-dioxocyclohexan-2-yl)carbonyl-2,3-dihydrobenzothiophene-1,1-dioxide]	0	0	–	–
Cc1cc(C(=O)C2=C(O)CCCC2=O)c(Cl)c2c1S(=O)(=O)CC2 [A-3, 4-chloro-7-methyl-5-(1,3-dioxocyclohexan-2-yl) carbonyl-2,3-dihydrobenzothiophene-1,1-dioxide]	1	3	–	–
Cc1cc(C(=O)C2=C(O)CCCC2=O)c(C)c2c1S(=O)(=O)CC2 [A-4, 4,7-dimethyl-5-(1,3-dioxocyclohexan-2-yl)carbonyl-2,3-dihydrobenzothiophene-1,1-dioxide]	0	1	–	–
COc1c(C(=O)C2=C(O)CCCC2=O)ccc2c1CCS2(=O)=O [A-5, 4-methoxy-5-(1,3-dioxocyclohexan-2-yl)carbonyl-2,3-dihydrobenzothiophene-1,1-dioxide]	0	0	–	–
CSc1c(C(=O)C2=C(O)CCCC2=O)ccc2c1CCS2(=O)=O [A-6, 4-methylthio-5-(1,3-dioxocyclohexan-2-yl)carbonyl-2,3-dihydrobenzothiophene-1,1-dioxide]	1	3	–	–
CC1CCC(O)=C(C(=O)c2ccc3c(c2Cl)CCS3(=O)=O)C1=O (centres unmarked) [A-7, 4-chloro-5-(4-methyl-1,3-dioxocyclohexan-2-yl)carbonyl-2,3-dihydrobenzothiophene-1,1-dioxide]	1	2	–	–
CC1(C)CCC(O)=C(C(=O)c2ccc3c(c2Cl)CCS3(=O)=O)C1=O [A-8, 4-chloro-5-(4,4-dimethyl-1,3-dioxocyclohexan-2-yl)carbonyl-2,3-dihydrobenzothiophene-1,1-dioxide]	1	3	–	–
CC1(C)CC(=O)C(C(=O)c2ccc3c(c2Cl)CCS3(=O)=O)=C(O)C1 [A-9, 4-chloro-5-(5,5-dimethyl-1,3-dioxocyclohexan-2-yl)carbonyl-2,3-dihydrobenzothiophene-1,1-dioxide]	1	3	–	–
Cc1cc(C(=O)C2=C(O)CC(C)(C)CC2=O)c(Cl)c2c1S(=O)(=O)CC2 [A-10, 4-chloro-7-methyl-5-(5,5-dimethyl-1,3-dioxocyclohexan-2-yl)carbonyl-2,3-dihydrobenzothiophene-1,1-dioxide]	1	3	–	–
Cc1cc(C(=O)C2=C(O)CCC(C)(C)C2=O)c(Cl)c2c1S(=O)(=O)CC2 [A-11, 4-chloro-7-methyl-5-(4,4-dimethyl-1,3-dioxocyclohexan-2-yl)carbonyl-2,3-dihydrobenzothiophene-1,1-dioxide]	1	3	–	–
CC1CC(=O)C(C(=O)c2ccc3c(c2Cl)CCS3(=O)=O)=C(O)C1 (centres unmarked) [A-12, 4-chloro-5-(5-methyl-1,3-dioxocyclohexan-2-yl)carbonyl-2,3-dihydrobenzothiophene-1,1-dioxide]	1	2	–	–
CC1CC(C)(C)C(=O)C(C(=O)c2ccc3c(c2Cl)CCS3(=O)=O)=C1O (centres unmarked) [A-13, 4-chloro-5-(4,4,6-trimethyl-1,3-dioxocyclohexan-2-yl)carbonyl-2,3-dihydrobenzothiophene-1,1-dioxide]	1	3	–	–
CC1CC(C)C(O)=C(C(=O)c2ccc3c(c2Cl)CCS3(=O)=O)C1=O (centres unmarked) [A-14, 4-chloro-5-(4,6-dimethyl-1,3-dioxocyclohexan-2-yl)carbonyl-2,3-dihydrobenzothiophene-1,1-dioxide]	1	2	–	–
CC1(C)CC(C)(C)C(=O)C(C(=O)c2ccc3c(c2Cl)CCS3(=O)=O)C1=O [A-15, 4-chloro-5-(4,4,6,6-tetramethyl-1,3-dioxocyclohexan-2-yl)carbonyl-2,3-dihydrobenzothiophene-1,1-dioxide]	1	3	–	–
CC1CC(O)=C(C(=O)c2ccc3c(c2Cl)CCS3(=O)=O)C(=O)C1C (centres unmarked) [A-16, 4-chloro-5-(4,5-dimethyl-1,3-dioxocyclohexan-2-yl)carbonyl-2,3-dihydrobenzothiophene-1,1-dioxide]	1	3	–	–
CC1Cc2c(ccc(C(=O)C3=C(O)CCCC3=O)c2Cl)S1(=O)=O (centres unmarked) [A-17, 4-chloro-2-methyl-5-(1,3-dioxocyclohexan-2-yl)carbonyl-2,3-dihydrobenzothiophene-1,1-dioxide]	0	1	–	–

SMILES	Chemical injury, Transplanted paddy rice plant [1]	Chemical injury, Transplanted paddy rice plant [2]	Chemical injury, Transplanted paddy rice plant (dose 100 g/ha)	Chemical injury, Transplanted paddy rice plant (dose 200 g/ha)
COc1c(C(=O)C2=C(O)CCCC2=O)ccc2c1CC(C)S2(=O)=O (centres unmarked) [A-18, 4-methoxy-2-methyl-5-(1,3-dioxocyclohexan-2-yl)carbonyl-2,3-dihydrobenzothiophene-1,1-dioxide]	0	1	–	–
O=C1CCCC([O-])=C1C(=O)c1ccc2c(c1Cl)CCS2(=O)=O.[Na+] [A-19, Sodium Salt of 4-chloro-5-(1,3-dioxocyclohexan-2-yl)carbonyl-2,3-dihydrobenzothiophene-1,1-dioxide]	0	1	–	–
O=C1CCCC(=O)C1C(=O)c1ccc2c(c1Br)CCS2(=O)=O [A-20, 4-bromo-5-(1,3-dioxocyclohexan-2-yl)carbonyl-2,3-dihydrobenzothiophene-1,1-dioxide]	0	0	–	–
N#Cc1c(C(=O)C2C(=O)CCCC2=O)ccc2c1CCS2(=O)=O [A-21, 4-cyano-5-(1,3-dioxocyclohexan-2-yl)carbonyl-2,3-dihydrobenzothiophene-1,1-dioxide]	0	0	–	–
O=C1CCCC(Cl)=C1C(=O)c1ccc2c(c1Cl)CCS2(=O)=O [B-1]	–	–	0	0
CCSC1=C(C(=O)c2ccc3c(c2Cl)CCS3(=O)=O)C(=O)CCC1 [B-2]	–	–	0	0
O=C1CCCC(Sc2ccccc2)=C1C(=O)c1ccc2c(c1Cl)CCS2(=O)=O [B-3]	–	–	0	0
Cc1cc(C(=O)C2=C(Cl)CCCC2=O)c(Cl)c2c1S(=O)(=O)CC2 [B-4]	–	–	1	2
Cc1cc(C(=O)C2=C(Sc3ccccc3)CCCC2=O)c(Cl)c2c1S(=O)(=O)CC2 [B-5]	–	–	0	0
O=C1CCCC(Br)=C1C(=O)c1ccc2c(c1Cl)CCS2(=O)=O [B-6]	–	–	0	0
CSC1=C(C(=O)c2ccc3c(c2Cl)CCS3(=O)=O)C(=O)CCC1 [B-7]	–	–	0	0
CCCSC1=C(C(=O)c2ccc3c(c2Cl)CCS3(=O)=O)C(=O)CCC1 [B-8, 4-chloro-5-[3-(3-propyl)thio-1-oxocyclohexan-2-yl]carbonyl-2,3-dihydrobenzothiophene-1,1-dioxide]	–	–	0	0
CC(C)SC1=C(C(=O)c2ccc3c(c2Cl)CCS3(=O)=O)C(=O)CCC1 [B-9]	–	–	0	0
CCCCSC1=C(C(=O)c2ccc3c(c2Cl)CCS3(=O)=O)C(=O)CCC1 [B-10]	–	–	0	0
O=C1CCCC(SCc2ccccc2)=C1C(=O)c1ccc2c(c1Cl)CCS2(=O)=O [B-11]	–	–	0	0
CON(C)C1=C(C(=O)c2ccc3c(c2Cl)CCS3(=O)=O)C(=O)CCC1 [B-12, 4-chloro-5-[3-(N-methoxymethyl)amino-1-oxocyclohexan-2-yl]carbonyl-2,3-dihydrobenzothiophene-1,1-dioxide]	–	–	0	1
CN(C)C1=C(C(=O)c2ccc3c(c2Cl)CCS3(=O)=O)C(=O)CCC1 [B-13]	–	–	0	0
